Laboratory results as given in ChEMBL document CHEMBL1155860, “Structure-activity relationship study of bone morphogenetic protein (BMP) signaling inhibitors” (Bioorg Med Chem Lett, 2008).
pIC50: −log10 of the molar value.

Biological target: T1, Bone morphogenetic protein 4 (Homo sapiens, UniProt P12644)
T1 sequence (P12644 whole entry): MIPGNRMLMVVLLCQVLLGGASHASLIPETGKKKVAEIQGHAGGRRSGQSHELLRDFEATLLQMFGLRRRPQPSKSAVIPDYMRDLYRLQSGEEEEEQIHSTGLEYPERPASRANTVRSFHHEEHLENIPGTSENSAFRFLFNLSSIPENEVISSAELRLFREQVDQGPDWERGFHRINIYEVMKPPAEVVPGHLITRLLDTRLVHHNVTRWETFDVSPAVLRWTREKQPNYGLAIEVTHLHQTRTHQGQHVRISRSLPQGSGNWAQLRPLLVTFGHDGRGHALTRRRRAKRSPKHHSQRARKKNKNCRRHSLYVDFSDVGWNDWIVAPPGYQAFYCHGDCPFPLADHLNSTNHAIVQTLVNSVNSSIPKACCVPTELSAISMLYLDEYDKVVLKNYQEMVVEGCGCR
Test: Inhibition of BMP4-induced phosphorylation of SMAD 1/5/8 by cytoblot cellular ELISA
Conditions: not given

SMILES	pIC50
Clc1ccc2c(-c3cnn4cc(-c5ccc(N6CCNCC6)cc5)cnc34)ccnc2c1	6.46
COc1ccc(-c2cnc3c(-c4ccncc4)cnn3c2)cc1	5.19
CN1CCN(CCOc2ccc(-c3cnc4c(-c5ccncc5F)cnn4c3)cc2)CC1	5.48
COc1ccc(-c2cnc3c(-c4ccc5ncccc5c4)cnn3c2)cc1	< 4.70
CCN(CC)CCOc1ccc(-c2cnc3c(-c4ccncc4)cnn3c2)cc1	6.30
c1cc2ncc(-c3ccc(OCCN4CCCCC4)cc3)cn2n1	< 4.70
c1ccc2c(-c3cnn4cc(-c5ccc(N6CCNCC6)cc5)ccc34)ccnc2c1	8.30
CN1CCN(CCOc2ccc(-c3cnc4c(-c5ccncc5)cnn4c3)cc2)CC1	6.35
COC(=O)c1cc(-c2ccnc3ccccc23)c2ncc(-c3ccc(OC)cc3)cn12	< 4.70
CN1CCN(CCOc2cccc(-c3cnc4c(-c5ccncc5)cnn4c3)c2)CC1	5.35
c1ccc2c(-c3ccn4cc(-c5ccc(OCCN6CCCCC6)cc5)cnc34)ccnc2c1	5.59
c1cc(-c2cnn3cc(-c4ccc(OCCN5CCOCC5)cc4)cnc23)ccn1	5.70
c1ccc(-c2cnn3cc(-c4ccc(OCCN5CCCCC5)cc4)cnc23)cc1	< 4.70
COc1ccc(-c2cnc3c(-c4cnc5ccccc5c4)cnn3c2)cc1	< 4.70
c1cncc(-c2cnn3cc(-c4ccc(OCCN5CCCCC5)cc4)cnc23)c1	< 4.70
Cc1nn2cc(-c3ccc(OCCN4CCN(C)CC4)cc3)cnc2c1-c1ccncc1	< 4.70
COc1ccc(-c2cnc3c(-c4cccc5cccnc45)cnn3c2)cc1	< 4.70
c1cc(-c2cnn3cc(-c4ccc(OCCN5CCCCC5)cc4)cnc23)ccn1 [DORSOMORPHIN]	6.37

Continued, values first:

pIC50	SMILES
6.82	COc1ccc(-c2ccc3c(-c4ccnc5ccccc45)cnn3c2)cc1
6.12	c1ccc(-c2cnc3c(-c4ccnc5ccccc45)cnn3c2)cc1
5.52	COc1ccc(-c2cnc3c(-c4cccc5ncccc45)cnn3c2)cc1
7.26	COc1ccc(-c2cnc3c(-c4ccnc5ccccc45)cnn3c2)cc1
6.30	COc1ccc(-c2cnc3c(-c4ccnc5cc(Cl)ccc45)cnn3c2)cc1
6.60	Oc1ccc(-c2cnc3c(-c4ccnc5ccccc45)cnn3c2)cc1
8.00	CN1CCN(CCOc2ccc(-c3cnc4c(-c5ccnc6ccccc56)cnn4c3)cc2)CC1
4.70	c1cc(-c2cnc3c(-c4ccnc5ccccc45)cnn3c2)cc(N2CCNCC2)c1
5.30	c1ccc2c(-c3cnn4cccnc34)ccnc2c1
7.05	c1ccc2c(-c3cnn4cc(-c5ccc(OCCN6CCCCC6)cc5)cnc34)ccnc2c1
8.31	c1ccc2c(-c3cnn4cc(-c5ccc(N6CCNCC6)cc5)cnc34)ccnc2c1
< 4.70	COc1ccc(-c2cnc3c(-c4ccnc5ccccc45)ccn3c2)cc1

System: not listed separately
Test: Metabolic stability in mouse liver microsomes assessed as half life
Type: ADME, Microsome
Conditions: not given

half-life	SMILES
13.3 min	CN1CCN(CCOc2ccc(-c3cnc4c(-c5ccnc6ccccc56)cnn4c3)cc2)CC1

System: not listed separately
Test: Metabolic stability in mouse liver microsomes assessed as intrinsic clearance
Type: ADME, Microsome
Conditions: not given

microsomal CLint	SMILES
104 µL/min/mg	CN1CCN(CCOc2ccc(-c3cnc4c(-c5ccnc6ccccc56)cnn4c3)cc2)CC1

System: not listed separately
Test: Tmax in male C57B16 mouse at 3.0 mg/kg, ip
Type: ADME, organism-based
Design: dose 3 mg/kg, route intraperitoneal
Conditions: in vivo

Tmax	SMILES
< 5 min	c1ccc2c(-c3cnn4cc(-c5ccc(N6CCNCC6)cc5)cnc34)ccnc2c1

System: not listed separately
Test: Tmax in female C57B16 mouse at 3.0 mg/kg, ip
Type: ADME, organism-based
Design: dose 3 mg/kg, route intraperitoneal
Conditions: in vivo

Tmax	SMILES
< 5 min	c1ccc2c(-c3cnn4cc(-c5ccc(N6CCNCC6)cc5)cnc34)ccnc2c1

System: not listed separately
Test: Half life in female C57B16 mouse at 3.0 mg/kg, ip
Type: ADME, organism-based
Design: dose 3 mg/kg, route intraperitoneal
Conditions: in vivo

half-life	SMILES
96 min	c1ccc2c(-c3cnn4cc(-c5ccc(N6CCNCC6)cc5)cnc34)ccnc2c1
